Test results as given in patent US9253983B2, “Triazole compound and use thereof” (KUREHA CORPORATION, priority 2011, dated 2016).

Legend:
[1] = tested on: Fusarium oxysporum; test: Test 2 for antifungal effect, plate medium: F.c; type: cell-based; details: PDA plate medium
Experimental: (§1) Compound (1-1b) or Compound (1-2b) was dissolved in dimethyl sulfoxide, and the resulting solution was added to a PDA medium (potato dextrose-agar medium) at about 60° C. The medium and the solution were mixed thoroughly in a conical flask, poured into a petri dish, and allowed to solidify. In this way, a plate medium containing Compound (1-1b) or Compound (1-2b) at a certain concentration was prepared.
(§2) Meanwhile, test microorganisms cultured on a plate medium in advance were cut out with the use of a cork borer 4 mm in diameter, and were inoculated onto the compound-containing plate medium. After the inoculation, the pathogens were cultured at their optimum growth temperatures (for example, refer to LIST OF CULTURES 1996 microorganisms 10th edition, Institute for Fermentation (foundation)) for 1 day to 7 days, and their growth was determined by measuring the diameter of their flora. The extent of growth of the pathogens on the compound-containing plate medium was compared with that of pathogens on a plate medium where no compound was added, and mycelial growth inhibition rate was calculated as in Experiment Example 10. Note that, in Experiment Example 11, controls used in the antifungal effect tests are Compound (1-1a) and Compound (1-2a) instead of Compound (1-1b) and Compound (1-2b), respectively.
(§3) The results were rated on a 1-to-5 scale as in Experiment Example 10.

[2] = tested on: Puccinia recondita; test: Efficacy of seed treatment on wheat brown rust; type: in vivo; details: wheat seed treatment 20 g ai/100 kg seeds, 12 days after inoculation
Experimental: A pot experiment was performed to evaluate the efficacy of seed treatment in controlling wheat leaf rust. Compound (1-1a) and Compound (1-2a), each of which was dissolved in DMSO to make up such a concentration that the seeds would be treated in treatment amount of 20 g ai/100 kg seeds, were each applied to wheat seeds in a vial, and thereafter 8 wheat seeds were sowed on an 80-cm^2 pot. The pot was kept in a greenhouse with water supplied to its bottom. 21 days after the sowing, the wheat seeds were inoculated with Puccinia recondita, and kept in a wet box for 2 days. After that, the pot was again kept in the greenhouse with water supplied to its bottom. 12 days after the inoculation, the percentage of affected area was found, and the protective value was calculated by the following equation. Protective value (%)=(1−(Percentage of affected area in treated region/Percentage of affected area in untreated region))×100

[3] = tested on: Gaeumannomyces graminis; test: Test 1 for antifungal effect, plate medium: G.g; type: cell-based; details: PDA plate medium
Experimental: as §1, with “(1-1a)” for “(1-1b)”, “(1-2a)” for “(1-2b)”
Meanwhile, test microorganisms cultured on a plate medium in advance were cut out with the use of a cork borer 4 mm in diameter, and were inoculated onto the compound-containing plate medium. After the inoculation, the microorganisms were cultured at their optimum growth temperatures (for example, refer to LIST OF CULTURES 1996 microorganisms 10th edition, Institute for Fermentation (foundation)) for 1 day to 7 days, and their growth was determined by measuring the diameter of their flora. The extent of growth of the microorganisms on the compound-containing plate medium was compared with that of microorganisms on a plate medium where no compound was added, and mycelial growth inhibition rate was calculated by the following equation: R=100(dc−dt)/dc where R is mycelial growth inhibition rate (%), dc is the flora diameter in untreated plate, and dt is the flora diameter in plate treated with the compound.
A larger antifungal index indicates a better antifungal effect.

[4] = tested on: Pyrenophora graminea; test: Test 2 for antifungal effect, plate medium: P.g; type: cell-based; details: PDA plate medium
Experimental: as §1, §2, §3

[5] = tested on: Botrytis cinerea; test: Controlling effect on cucumber gray mold by foliage spray treatment (Tests 1 and 2); type: in vivo; details: four days after inoculation
Experimental: The cucumber plants had been grown in square plastic pots (6 cm×6 cm). After the suspension was then left to dry, paper discs (8 mm in diameter) impregnated with a spore suspension of Botrytis cinerea w ere placed on the leaves, and the plants were kept at 20° C. in a high humidity environment. Four days after inoculation, the lesion degree of the cucumber gray mold was examined in accordance with the criteria shown in Table 1, and the protective values were calculated by the following equation: Protective value (%)=(1−Average lesion degree in sprayed plot/Average lesion degree in unsprayed plot)×100.
The cucumber plants had been grown in square plastic pots (6 cm×6 cm). After the leaves were air-dried, paper discs (8 mm in diameter) impregnated with a spore suspension of cucumber graymold-causing microorganisms were placed on the leaves, and the plants were kept at 20° C. in a high humidity environment. 4 days after the inoculation, the lesion degree of the cucumber gray mold was examined, and the protective values were calculated as were in Experiment Example 1.

[6] = tested on: Puccinia recondita; test: Controlling effect on wheat brown rust (leaf rust) by foliage spray treatment (Tests 1 and 2); type: in vivo; details: foliage spray 0.8 mg/L, 1,000 L/ha, 11 days after inoculation
Experimental: The wheat plants had been grown in square plastic pots (6 cm×6 cm). The suspensions were left to dry, and inoculated with spores of Puccinia recondita (adjusted at 200 spores per field of vision, Gramin S was added at 60 ppm) by spraying, and kept at 25° C. in a high humidity environment for 48 hours. After that, the plants were kept in a greenhouse. 11 days after the inoculation, the lesion degree of the wheat leaf rust was examined in accordance with the criteria shown in Table 4, and the protective values were calculated by the following equation. Protective value (%)=(1−Average lesion degree in sprayed plot/Average lesion degree in unsprayed plot)×100
The wheat plants had been grown in square plastic pots (6 cm×6 cm). The leaves were air-dried, and inoculated with spores of Puccinia recondita (adjusted at 200 spores per field of vision, Gramin S was added at 60 ppm) by spraying, and kept at 25° C. in a high humidity environment for 48 hours. After that, the plants were kept in a greenhouse. 11 days after the inoculation, the lesion degree of the wheat leaf rust was examined, and the protective values were calculated as were in Experiment Example 2.

[7] = foliage spray 3.1 mg/L, 1,000 L/ha
[8] = foliage spray 12.5 mg/L, 1,000 L/ha

SMILES | Antifungal index (mycelial growth inhibition rate) ([1]; 0.04 mg/L) | Antifungal index (mycelial growth inhibition rate) ([1]; 0.08 mg/L) | Antifungal index (mycelial growth inhibition rate) ([1]; 0.16 mg/L) | Antifungal index (mycelial growth inhibition rate) ([1]; 0.31 mg/L) | Antifungal index (mycelial growth inhibition rate) ([1]; 0.63 mg/L) | Antifungal index (mycelial growth inhibition rate) ([1]; 1.25 mg/L) | Protective value (%) [2] [%] | Antifungal index (mycelial growth inhibition rate) ([3]; 0.16 mg/L) | Antifungal index (mycelial growth inhibition rate) ([3]; 0.31 mg/L) | Antifungal index (mycelial growth inhibition rate) ([3]; 0.63 mg/L) | Antifungal index (mycelial growth inhibition rate) ([3]; 1.25 mg/L) | Antifungal index (mycelial growth inhibition rate) ([3]; 2.50 mg/L) | Antifungal index (mycelial growth inhibition rate) ([4]; 0.04 mg/L) | Antifungal index (mycelial growth inhibition rate) ([4]; 0.08 mg/L) | Antifungal index (mycelial growth inhibition rate) ([4]; 0.16 mg/L) | Antifungal index (mycelial growth inhibition rate) ([4]; 0.31 mg/L) | Antifungal index (mycelial growth inhibition rate) ([4]; 0.63 mg/L) | Antifungal index (mycelial growth inhibition rate) ([4]; 1.25 mg/L) | Protective value (%) [5, 8] [%] | Protective value (%) [6] [%] | further results
CC1(CCl)CCC(Cc2ccc(F)cc2)C1(O)Cn1cncn1 (single isomer, unassigned) [Compound (1-2a), (1,2-cis, 1,5-cis)-5-(4-fluorobenzyl)-2-chloromethyl-2-methyl-1-(1H-1,2,4-triazole-1-ylmethyl)cyclopentanol] | 1 (Less than 60%) | 1 (Less than 60%) | 2 (Less than 70% but not less than 60%) | 3 (Less than 80% but not less than 70%) | 4 (Less than 90% but not less than 80%) | 5 (90% or greater) | 100 | 1 (Less than 60%) | 4 (Less than 90% but not less than 80%) | 5 (90% or greater) | 5 (90% or greater) | 5 (90% or greater) | 1 (Less than 60%) | 2 (Less than 70% but not less than 60%) | 4 (Less than 90% but not less than 80%) | 5 (90% or greater) | 5 (90% or greater) | 5 (90% or greater) | 100 | 91 | Protective value (%) [5, 7]: 40%
CC1(CCl)CCC(Cc2ccc(Cl)cc2)C1(O)Cn1cncn1 (single isomer, unassigned) [Compound (1-1b), (1,2-cis, 1,5-cis)-5-(4-chlorobenzyl)-2-chloromethyl-2-methyl-1-(1H-1,2,4-triazole-1-ylmethyl)cyclopentanol] | 1 (Less than 60%) | 3 (Less than 80% but not less than 70%) | 4 (Less than 90% but not less than 80%) | 5 (90% or greater) | 5 (90% or greater) | 5 (90% or greater) | 63 | 1 (Less than 60%) | 1 (Less than 60%) | 2 (Less than 70% but not less than 60%) | 5 (90% or greater) | 5 (90% or greater) | 3 (Less than 80% but not less than 70%) | 4 (Less than 90% but not less than 80%) | 5 (90% or greater) | 5 (90% or greater) | 5 (90% or greater) | 5 (90% or greater) | 45 | 29 | 
CC1(CCl)CCC(Cc2ccc(F)cc2)C1(O)Cn1cncn1 (single isomer, unassigned) [Compound (1-2b), (1,2-cis, 1,5-cis)-5-(4-fluorobenzyl)-2-chloromethyl-2-methyl-1-(1H-1,2,4-triazole-1-ylmethyl)cyclopentanol] | 1 (Less than 60%) | 2 (Less than 70% but not less than 60%) | 3 (Less than 80% but not less than 70%) | 4 (Less than 90% but not less than 80%) | 5 (90% or greater) | 5 (90% or greater) |  | 1 (Less than 60%) | 1 (Less than 60%) | 4 (Less than 90% but not less than 80%) | 5 (90% or greater) | 5 (90% or greater) | 4 (Less than 90% but not less than 80%) | 5 (90% or greater) | 5 (90% or greater) | 5 (90% or greater) | 5 (90% or greater) | 5 (90% or greater) | 98 | 80 | Protective value (%) [5, 7]: 15%
CC1(CCl)CCC(Cc2ccc(Cl)cc2)C1(O)Cn1cncn1 (single isomer, unassigned) [Compound (1-1a), (1,2-cis, 1,5-cis)-5-(4-chlorobenzyl)-2-chloromethyl-2-methyl-1-(1H-1,2,4-triazole-1-ylmethyl)cyclopentanol] | 1 (Less than 60%) | 3 (Less than 80% but not less than 70%) | 4 (Less than 90% but not less than 80%) | 4 (Less than 90% but not less than 80%) | 5 (90% or greater) | 5 (90% or greater) | 90 | 3 (Less than 80% but not less than 70%) | 5 (90% or greater) | 5 (90% or greater) | 5 (90% or greater) | 5 (90% or greater) | 2 (Less than 70% but not less than 60%) | 3 (Less than 80% but not less than 70%) | 4 (Less than 90% but not less than 80%) | 5 (90% or greater) | 5 (90% or greater) | 5 (90% or greater) | 100 | 95 | 
